# In patent US8287923B2, “Compositions and methods for treating immune disorders” (priority 2005, dated 2012):
# System: normal human epidermal keratinocytes (NHEK)
# Test: Affymetrix gene array analysis, autoantigen gene expression
# Assay type: cell-based
# Method: The gene array experiment was performed at the Core Facility of Genomics of the Medical College of Georgia, according to the instructions of the manufacturer (Affymetrix, Santa Clara, Calif.). Briefly, NHEK and OSC2 cells treated with 100 μM EGCG for different time period were extracted for total RNA, the RNA was processed for probes and hybridized with a cDNA microarray (HuG133A, Affymetrix) which represents 22,283 human series. DNA chips were read with a Hewlett-Packard GeneArray Scanner at a resolution of […] and were analyzed with the GeneSpring software (Silicon Genetics, Redwood City, Calif.). Details of this analysis will be published elsewhere (Hsu et al., manuscript in preparation).
# Gene assays provide a valuable tool for studying the broad response of cells to agents, and we have used this approach to compare the differential effects of GTPP on gene expression in NHEK and human oral squamous carcinoma cells (Hsu, et al, manuscript in preparation). […] See also Hsu, S. et al. (2005) JPET 315:805-811, which is incorporated by reference in its entirety.
smiles,measurement,setting,value
"O=C(O[C@@H]1Cc2c(O)cc(O)cc2O[C@@H]1c1cc(O)c(O)c(O)c1)c1cc(O)c(O)c(O)c1 [EGCG, (−)-epigallocatechin-3-gallate]","Ku autoantigen, 80 kDa (208642_s_at) expression, normalized","24 h, 100 μM",0.73
same,"Ku autoantigen, 80 kDa (208643_s_at) expression, normalized","24 h, 100 μM",0.77
same,"Nuclear antigen SP100 (202863_at) expression, normalized","24 h, 100 μM",0.36
same,"Nuclear antigen SP100 (202864_s_at) expression, normalized","24 h, 100 μM",0.08
same,"Nuclear antigen SP10075 kDa (213226_at) expression, normalized","24 h, 100 μM",0.50
same,"RNA polymerase 1 (202692_s-at) expression, normalized","24 h, 100 μM",0.55
same,"SS-B/La (201138_s_at) expression, normalized","24 h, 100 μM",0.27
same,"SS-B/La (201139_s_at) expression, normalized","24 h, 100 μM",0.26
same,"centromere protein C1 (20473_at) expression, normalized","24 h, 100 μM",0.94
same,"coilin (203653_s_at) expression, normalized","24 h, 100 μM",0.79
same,"coilin (203654_s_at) expression, normalized","24 h, 100 μM",0.79
same,"fodrin-α (208611_s_at) expression, normalized","24 h, 100 μM",0.42
same,"fodrin-α (215235_s_at) expression, normalized","24 h, 100 μM",0.71
same,"golgin-67 (208797_s_at) expression, normalized","24 h, 100 μM",0.29
same,"golgin-67 (208798_x_at) expression, normalized","24 h, 100 μM",0.31
same,"golgin-67 (210425_x_at) expression, normalized","24 h, 100 μM",0.31
same,"golgin-67 (213650_at) expression, normalized","24 h, 100 μM",0.72
same,"scleroderma autoantigen 1, 75 kDa (213226_at) expression, normalized","24 h, 100 μM",0.50
same,"spectrin-β non-erythrocyctic 1 (212071_s_at) expression, normalized","24 h, 100 μM",0.72
same,"thyroid autoantigen 70 kDa (Ku antigen) (200792_at) expression, normalized","24 h, 100 μM",0.79
same,ADPRT [poly(ADP)-ribose polymerase] expression,"24 h, 100 μM, vs time zero",0.85 fold
same,ANAP12 expression,"24 h, 100 μM, vs time zero",0.198 fold
same,ANXA11 expression,"24 h, 100 μM, vs time zero",1.946 fold
same,CALR expression,"24 h, 100 μM, vs time zero",1.528 fold
same,CBARA1 expression,"24 h, 100 μM, vs time zero",0.721 fold
same,CENPA expression,"24 h, 100 μM, vs time zero",0.673 fold
same,CENPB expression,"24 h, 100 μM, vs time zero",0.721 fold
same,CENPC1 expression,"24 h, 100 μM, vs time zero",0.936 fold
same,CHD4 expression,"24 h, 100 μM, vs time zero",0.84 fold
same,COL17A1 expression,"24 h, 100 μM, vs time zero",0.684 fold
same,CTDSP1 expression,"24 h, 100 μM, vs time zero",1.39 fold
same,CTDSP2 expression,"24 h, 100 μM, vs time zero",1.71 fold
same,CTDSPL expression,"24 h, 100 μM, vs time zero",2.10 fold
same,DLAT expression,"24 h, 100 μM, vs time zero",0.751 fold
same,EPPK1 expression,"24 h, 100 μM, vs time zero",0.889 fold
same,FBL expression,"24 h, 100 μM, vs time zero",0.69 fold
same,FLJ31657 expression,"24 h, 100 μM, vs time zero",0.959 fold
same,"FLNB (Filamin B, β) expression","24 h, 100 μM, vs time zero",0.249 fold
same,"FLNB (Filamin B, γ) expression","24 h, 100 μM, vs time zero",0.243 fold
same,"G22P1 (Thyroid autoantigen, 70 kDa, Ku antigen) expression","24 h, 100 μM, vs time zero",0.792 fold
same,GMEB2 expression,"24 h, 100 μM, vs time zero",0.745 fold
same,GOLGA1 expression,"24 h, 100 μM, vs time zero",0.9 fold
same,GOLGA2 expression,"24 h, 100 μM, vs time zero",0.949 fold
same,GOLGA3 expression,"24 h, 100 μM, vs time zero",0.419 fold
same,GOLGA4 expression,"24 h, 100 μM, vs time zero",0.664 fold
same,GOLGA5 expression,"24 h, 100 μM, vs time zero",1.494 fold
same,GOLGB1 expression,"24 h, 100 μM, vs time zero",0.688 fold
same,HARS expression,"24 h, 100 μM, vs time zero",0.72 fold
same,HARSL expression,"24 h, 100 μM, vs time zero",1.00 fold
same,HSA6591 expression,"24 h, 100 μM, vs time zero",0.562 fold
same,HUMAUANTIG expression,"24 h, 100 μM, vs time zero",0.517 fold
same,IMP-2 expression,"24 h, 100 μM, vs time zero",0.665 fold
same,LAD1 expression,"24 h, 100 μM, vs time zero",0.553 fold
same,LMO4 expression (repeat 1),"24 h, 100 μM, vs time zero",1.011 fold
same,LMO4 expression (repeat 2),"24 h, 100 μM, vs time zero",0.659 fold
same,MGC5560 expression (repeat 1),"24 h, 100 μM, vs time zero",0.81 fold
same,MGC5560 expression (repeat 2),"24 h, 100 μM, vs time zero",0.552 fold
same,NS (Nucleostemin) expression,"24 h, 100 μM, vs time zero",0.814 fold
same,PDHB expression,"24 h, 100 μM, vs time zero",0.818 fold
same,PDX1 expression,"24 h, 100 μM, vs time zero",0.903 fold
same,"PMSCL1, 75 kDa expression","24 h, 100 μM, vs time zero",0.496 fold
same,PMSCL2 expression,"24 h, 100 μM, vs time zero",0.717 fold
same,POLR1B expression,"24 h, 100 μM, vs time zero",1.04 fold
same,POLR1D expression,"24 h, 100 μM, vs time zero",1.31 fold
same,POLR2A expression (repeat 1),"24 h, 100 μM, vs time zero",1.02 fold
same,POLR2A expression (repeat 2),"24 h, 100 μM, vs time zero",1.17 fold
same,POLR2B expression,"24 h, 100 μM, vs time zero",0.74 fold
same,POLR2C expression,"24 h, 100 μM, vs time zero",1.66 fold
same,POLR2D expression,"24 h, 100 μM, vs time zero",0.29 fold
same,POLR2E expression,"24 h, 100 μM, vs time zero",0.39 fold
same,POLR2F expression,"24 h, 100 μM, vs time zero",0.80 fold
same,POLR2G expression,"24 h, 100 μM, vs time zero",0.89 fold
same,POLR2H expression,"24 h, 100 μM, vs time zero",1.15 fold
same,POLR3C expression,"24 h, 100 μM, vs time zero",0.49 fold
same,POLR3G expression,"24 h, 100 μM, vs time zero",0.47 fold
same,PSME3 expression,"24 h, 100 μM, vs time zero",0.421 fold
same,RALY expression,"24 h, 100 μM, vs time zero",0.612 fold
same,SART1 expression,"24 h, 100 μM, vs time zero",0.98 fold
same,SLC25A16 expression,"24 h, 100 μM, vs time zero",1.144 fold
same,SNRP70 expression,"24 h, 100 μM, vs time zero",0.51 fold
same,SNRPA expression,"24 h, 100 μM, vs time zero",0.32 fold
same,SNRPB2 expression,"24 h, 100 μM, vs time zero",0.82 fold
same,SNRPB expression (repeat 1),"24 h, 100 μM, vs time zero",0.52 fold
same,SNRPB expression (repeat 2),"24 h, 100 μM, vs time zero",0.42 fold
same,SNRPC expression,"24 h, 100 μM, vs time zero",1.12 fold
same,SNRPD1 expression (repeat 1),"24 h, 100 μM, vs time zero",0.425 fold
same,SNRPD1 expression (repeat 2),"24 h, 100 μM, vs time zero",0.517 fold
same,SOX13 expression,"24 h, 100 μM, vs time zero",1.582 fold
same,SP100 expression (repeat 1),"24 h, 100 μM, vs time zero",0.356 fold
same,SP100 expression (repeat 2),"24 h, 100 μM, vs time zero",0.079 fold
same,SP110 expression (repeat 1),"24 h, 100 μM, vs time zero",0.978 fold
same,SP110 expression (repeat 2),"24 h, 100 μM, vs time zero",0.654 fold
same,SP110 expression (repeat 3),"24 h, 100 μM, vs time zero",0.621 fold
same,SPTAN1 (α-fodrin) expression (repeat 1),"24 h, 100 μM, vs time zero",0.42 fold
same,SPTAN1 (α-fodrin) expression (repeat 2),"24 h, 100 μM, vs time zero",0.71 fold
same,SPTBN expression,"24 h, 100 μM, vs time zero",0.72 fold
same,SSA2 (autoantigen SS-A/Ro) expression (repeat 2),"24 h, 100 μM, vs time zero",0.88 fold
same,SSA2 expression (repeat 1),"24 h, 100 μM, vs time zero",1.17 fold
same,SSA2 expression (repeat 3),"24 h, 100 μM, vs time zero",1.556 fold
same,SSA2 expression (repeat 4),"24 h, 100 μM, vs time zero",0.94 fold
same,SSB (autoantigen La) expression (repeat 1),"24 h, 100 μM, vs time zero",0.273 fold
same,SSB (autoantigen La) expression (repeat 2),"24 h, 100 μM, vs time zero",0.257 fold
same,SSNA1 expression,"24 h, 100 μM, vs time zero",0.943 fold
same,SSSCA1 expression,"24 h, 100 μM, vs time zero",1.228 fold
same,STRN3 expression,"24 h, 100 μM, vs time zero",0.759 fold
same,TOP1 expression (repeat 1),"24 h, 100 μM, vs time zero",0.12 fold
same,TOP1 expression (repeat 2),"24 h, 100 μM, vs time zero",0.43 fold
same,UBTF expression,"24 h, 100 μM, vs time zero",0.546 fold
same,"XRCC5 (Ku autoantigen, 80 kDa) expression (repeat 1)","24 h, 100 μM, vs time zero",0.771 fold
same,"XRCC5 (Ku autoantigen, 80 kDa) expression (repeat 2)","24 h, 100 μM, vs time zero",0.725 fold
same,dJ963E22.1 expression,"24 h, 100 μM, vs time zero",0.88 fold
same,α-NAC expression,"24 h, 100 μM, vs time zero",0.469 fold
same,rapid initial increase of nuclear antigen SP100 and scleroderma autoantigen 1 mRNA,followed by a 2-fold or greater decrease,2-4 fold
same,"decrease in mRNA levels of RNA polymerase I, SS-B/La, alpha-fodrin and golgin-67",rapid (0.5-2 hr initiation) and persistent during the 24 hr period,≥ 2 fold
same,60 kDa SS-A/Ro mRNA level,time course up to 24 hr,did not decline significantly
